# Patent US5225425A, “Bis-aryl amide antagonists of platelet activating factor” (American Cyanamid Company, priority 1992, dated 1993)
# pIC50: −log10 of the molar value. Several values for one entry are separate records, joined by “and”; a condition that tells them apart may be missing. Equal values may be shown once. Where a name gives a salt, the structure may show the parent alone. Read-outs that look alike come from different tables or passages of the source.
# Assays:
# PAF receptor = biological target: T1, PAF receptor (Oryctolagus cuniculus, UniProt G1TEI7); assay: Inhibition of PAF induced platelet aggregation in rabbit platelet rich plasma; assay type: cell-based, rabbit (New Zealand White); conditions: for inhibition at 10 µM: dose .00001 M
# T1 construct: centrifuged at 800 rpm for 10-15 minutes at room temperature to recover the platelet rich plasma (PRP); from tissue; host or cells: platelets in platelet rich plasma from blood of male New Zealand White rabbits
# T1 sequence (G1TEI7 1-342): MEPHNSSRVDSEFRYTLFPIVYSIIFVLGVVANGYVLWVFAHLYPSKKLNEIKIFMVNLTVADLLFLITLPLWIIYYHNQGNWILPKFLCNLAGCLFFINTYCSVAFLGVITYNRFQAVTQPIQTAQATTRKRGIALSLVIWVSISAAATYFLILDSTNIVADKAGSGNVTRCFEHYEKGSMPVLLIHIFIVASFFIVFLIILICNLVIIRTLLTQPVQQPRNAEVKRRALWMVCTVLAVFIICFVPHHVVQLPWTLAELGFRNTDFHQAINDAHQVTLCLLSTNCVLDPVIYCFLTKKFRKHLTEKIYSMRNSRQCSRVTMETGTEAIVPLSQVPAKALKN
# Description: Test compounds are evaluated as PAF receptor antagonists in vitro by measuring inhibition of PAF (platelet activating factor) induced platelet aggregation. Platelet aggregation is measured by a modification of the method described in […], et. al., J. Med. Chem., 27 1174, 1984. […] All syringes and pipets are plastic. The blood is gently mixed and immediately centrifuged at 800 rpm for 10-15 minutes at room temperature to recover the platelet rich plasma (PRP). Platelet poor plasma (PPP) is prepared by centrifuging PRP at 2800 rpm for 10 minutes at room temperature. Dilutions (1:3000) of PRP in Isotone diluent are made and platelet counts are determined on a Coulter Thrombocounter which is standardized with platelet reference standards (Interscience Platelet Control, Portland, Oreg.). PRP platelet counts are adjusted to approximately 400,000-500,000 platelets/μl by the addition of PPP. L-PAF (Platelet Activating Factor) is obtained from Calbiochem. […] All solutions are made up in plastic tubes, stored on ice and protected from heat and light. Solutions are prepared fresh or frozen at -20° C. and used within 48 hours. Incubation mixtures consisted of 400 μl PRP, 50 μl of saline diluent or test compound and 50 μl of PAF agonist. More specifically, 400μl of PRP is stabilized in a cuvette for 1-2 minutes at 37° C. in the aggregometer to achieve a stable baseline, then 50 μl of saline or test compound is added and incubated for 5 minutes before addition of the challenge concentration of pAF. A submaximal concentration is determined from the dose response curve for PAF for that experiment. In general, the challenge concentration is 5E-8 or 1E-7M. Aggregation is monitored for 5 minutes. Samples containing test compound or diluent are run simultaneously for comparison. Test compounds are initially evaluated at a screening concentration of 1E-5M. […] The recording equipment consists of a dual channel Chronolog aggregometer connected to a dual channel 10MV full scale deflection Omniscribe chart recorder (Houston Instruments). The chart recorder is calibrated daily with the use of a suspension of Bio-Rad latex beads (S-X 12 400 mesh) which has a density slightly greater than rabbit PRP. […] These limits defined a full scale deflection. The aggregation traces are analyzed by a digitizing method (C. Kohler and B. Zoltan, J. Pharm. Methods, 12, 113, 1984) with x, y coordinate data stored in a computer file. A suitable program computes parameters of interest such as the magnitude of aggregation.
# PAF = PAF induced lethality in mice; assay type: in vivo; conditions: PAF 150 μg/kg IV
# Description: PAF given I.V. to mice causes an immediate hypotensive shock leading to death in 1 hour or less. […] Animals alive after 2 hours are counted and the activity of test compounds expressed as % survival corrected for any control (saline treated) animals which survived the PAF challenge.
# LPS endotoxin = assay: Low dose, chronic mouse endotoxemia (LPS endotoxin); assay type: in vivo, Male Balb/c mice; conditions: day 6, LPS 20 mg/kg i.p.
# Description: Endotoxin administration produces a shock-like state characterized by vascular permeability changes, hypotension, neutropenia, thrombocytopenia,multiple organ damage and death. The major mediators released after endotoxin injection are TNF (tumor necrosis factor), PAF (platelet activating factor) and […] (interleukin I). PAF administration mimics the signs and symptoms of endotoxin induced shock and death and endotoxin also induces the release of PAF. Therefore, the effects of endotoxin should be blocked with a PAF antagonist.
# Male Balb/c mice (approximately 20 g) are obtained from Charles River Laboratories and used after a one-two week acclimation period. Animals are given (ip) test compound dissolved in saline or water (sonicated and heated) at different time intervals prior to and after the ip injection of endotoxin (usually 2 hours before LPS endotoxin, and 3-4 hours after). Sigma E. Coli endotoxin, 0111:B4, phenol extraction, catalog #L2630 is used for these studies.
# For the chronic endotoxin shock model, a lower dose of endotoxin is administered (generally 15 to 20 mg/kg i.p). This dose gives an LD80 in two to four days following LPS administration. Test compounds are given 2 hours before LPS and 3-4 hours after on the first day, followed by 3 or 4 consecutive days of BID dosing. The number of survivors in each group is recorded each day for a period of 5 to 7 days.
# All mice challenged with LPS endotoxin = 20 mg/kg i.p.
# CL test cpd given 2 hours before and 3-4 hours after LPS challenge on day
# 0, followed by BID dosing for 3-4 days.
# [1] = PAF challenge 5.0000E-08 M, read-out: % INH of PAF induced platelet aggregation
# [2] = PAF challenge 5E-9 M, read-out: % INH of PAF induced platelet aggregation
# [3] = PAF challenge .0000005 M, read-out: % INH of PAF induced platelet aggregation
# [4] = PAF challenge 1.0000E-08 M, read-out: % INH of PAF induced platelet aggregation
compound,measurement,setting,value
CCCCCCCCCCCCCCOc1ccc(NC(=O)c2cccc(C[n+]3csc(C)c3)c2)cc1 [5-Methyl-3-[[3-[[[4-(tetradecyloxy)phenyl]amino]carbonyl]phenyl]methyl]thiazolium bromide],pIC50,PAF receptor; PAF challenge 5.0000E-08 M,5.57
same,inhibition at 10 µM,PAF receptor; [1],89%
CCCCCCCCCCCCCCOc1ccc(CC(=O)Nc2cccc(C[n+]3ccsc3)c2)cc1.[Br-] [3-[[3-[[[4-(tetradecyloxy)phenyl]acetyl]amino]phenyl]methyl]thiazolium bromide],% Survival,PAF; 40 mg/kg P.O.,40%
same,% Survival,LPS endotoxin; dose 10 mg/kg i.p.,63%
same,% Survival,LPS endotoxin; dose 20 mg/kg i.p.,40%
same,pIC50,PAF receptor; PAF challenge 5E-9 M,6.92
same,inhibition at 2.5 µM,"PAF receptor; dose .0000025 M, PAF challenge 5.0000E-08 M, read-out: % INH of PAF induced platelet aggregation",97%
same,inhibition at 10 µM,PAF receptor; [1],100%
same,inhibition at 10 µM,PAF receptor; [2],98%
CCCCCCCCCCCCCCOc1ccc(CC(=O)Nc2cccc(-n3ccnc3C)c2)cc1 [N-[3-(2-methyl-1H-imidazol-1-yl)phenyl]-4-(tetradecyloxy)-benzeneacetamide monohydrochloride],pIC50,PAF receptor; PAF challenge 5.0000E-08 M,4.73
same,inhibition at 10 µM,PAF receptor; [1],34%
"CCCCCCCCCCCCCCOc1ccc(CC(=O)Nc2cccc(C[n+]3cc(C)cc(C)c3)c2)cc1 [3,5-Dimethyl-1-[[3-[[[4-(tetradecyloxy)phenyl]acetyl]amino]phenyl]methyl]pyridinium bromide]",inhibition at 10 µM,PAF receptor; [1],84%
CCCCCCCCCCCCCCOc1ccc(CN(C(C)=O)c2cccc(C[n+]3csc(C)c3)c2)cc1.[Br-] [3-[[3-[Acetyl[[4-(tetradecyloxy)phenyl]methyl]amino]phenyl]methyl]-5-methylthiazolium bromide],% Survival,PAF; 1 mg/kg I.V.,83%
same,% Survival,PAF; 5 mg/kg P.O.,52%
same,% Survival,PAF; 10 mg/kg P.O.,75%
same,% Survival,PAF; 20 mg/kg P.O.,75%
same,% Survival,PAF; .25 mg/kg I.V.,100%
same,% Survival,PAF; .5 mg/kg I.V.,83%
same,inhibition at 10 µM,PAF receptor; [1],98%
CCCCCCCCCCCCCCOc1ccc(CCN(C(C)=O)c2cccc(C[n+]3csc(C)c3)c2)cc1 [3-[[3-[Acetyl[2-[4-(tetradecyloxy)phenyl]ethyl]amino]phenyl]methyl]-5-methyl-thiazolium bromide],pIC50,PAF receptor; PAF challenge 8.0000E-09 M,5.54
same,pIC50,PAF receptor; PAF challenge .0000005 M,5.37
same,inhibition at 10 µM,"PAF receptor; PAF challenge 8.0000E-09 M, read-out: % INH of PAF induced platelet aggregation",85%
same,inhibition at 10 µM,PAF receptor; [3],69%
CCCCCCCCCCCCCCOc1ccc(CN(C(C)=O)c2ccc(C[n+]3csc(C)c3)cc2)cc1 [3-[[4-[acetyl[[4-(tetradecyloxy)phenyl]methyl]amino]phenyl]methyl]-5-methyl-thiazolium bromide],pIC50,PAF receptor; PAF challenge 5.0000E-08 M,5.68
same,inhibition at 0.1 µM,"PAF receptor; dose .0000001 M, PAF challenge 5.0000E-08 M, read-out: % INH of PAF induced platelet aggregation",84%
"CCCCCCCCCCCCCCOc1ccc(CC(=O)Nc2cccc(-n3cc[n+](C)c3C)c2)cc1 [2,3-dimethyl-1-[3-[[[4-(tetradecyloxy)phenyl]acetyl]amino]phenyl]1H-imidazolium iodide]",pIC50,PAF receptor; PAF challenge 5.0000E-08 M,5.61
same,inhibition at 10 µM,PAF receptor; [1],80%
CCCCCCCCCCCCCCCCOc1ccc(OCC(=O)Nc2ccccc2C[n+]2csc(C)c2)cc1 [3-[[2-[[[4-(Hexadecyloxy)phenoxy]acetyl]amino]phenyl]methyl]-5-methyl-thiazolium bromide],pIC50,PAF receptor; PAF challenge 1.0000E-08 M,4.95
same,pIC50,PAF receptor; PAF challenge .0000005 M,5.42
same,inhibition at 10 µM,PAF receptor; [4],60%
same,inhibition at 10 µM,PAF receptor; [3],83%
CCCCCCCCCCCCCCOc1ccc(CN(C(=O)NC)c2cccc(C[n+]3csc(C)c3)c2)cc1.[Br-] [5-methyl-3-[[3-[[(methylamino)carbonyl]-[[4-(tetradecyloxy)phenyl]methyl]amino]phenyl]methyl]-thiazolium bromide],% Survival,LPS endotoxin; dose 10 mg/kg i.p.,46%
same,% Survival,LPS endotoxin; dose 20 mg/kg i.p.,20%
same,pIC50,PAF receptor; PAF challenge 5.0000E-08 M,6.34
same,pIC50,PAF receptor; PAF challenge .0000001 M,5.96
same,inhibition at 10 µM,PAF receptor; [1],90%
same,inhibition at 10 µM,"PAF receptor; PAF challenge .0000001 M, read-out: % INH of PAF induced platelet aggregation",95%
"CCCCCCCCCCCCCCOc1ccc(CC(=O)Nc2ccc(-n3cc[n+](C)c3C)cc2)cc1 [2,3-dimethyl-1-[4-[[[4-(tetradecyloxy)phenyl]acetyl]amino]phenyl]1H-imidazolium iodide]",pIC50,PAF receptor; PAF challenge 5.0000E-08 M,5.35
same,inhibition at 10 µM,PAF receptor; [1],62%
CCCCCCCCCCCCCCOc1ccc(C(=O)Nc2cccc(C[n+]3csc(C)c3)c2)cc1 [5-Methyl-3-[[3-[[4-(tetradecyloxy)benzoyl]amino]phenyl]methyl]thiazolium bromide],pIC50,PAF receptor; PAF challenge 5.0000E-08 M,5.22
same,inhibition at 10 µM,PAF receptor; [1],54%
CCCCCCCCCCCCCCOc1cccc(CC(=O)Nc2ccccc2C[n+]2csc(C)c2)c1 [5-Methyl-3-[[2-[[[3-(tetradecyloxy)phenyl]acetyl]amino]phenyl]methyl]thiazolium bromide],pIC50,PAF receptor; PAF challenge 5E-9 M,4.47
same,inhibition at 10 µM,PAF receptor; [1],23%
same,inhibition at 10 µM,PAF receptor; [2],27%
"CCCCCCCCCCCCCCOc1ccc(CN(C(C)=O)c2cccc(C[n+]3ccc(C)c(C)c3)c2)cc1 [1-[[3-[acetyl[[4-(tetradecyloxy)phenyl]methyl]amino]phenyl]methyl]-3,4-dimethyl-pyridinium bromide]",pIC50,PAF receptor; PAF challenge 5.0000E-08 M,4.92
same,inhibition at 10 µM,PAF receptor; [1],52%
CCCCCCCCCCCCCCCCOc1ccc(OCC(=O)Nc2cccc(C[n+]3csc(C)c3)c2)cc1 [3-[[3-[[[4-(Hexadecyloxy)phenoxy]acetyl]amino]phenyl]methyl]-5-methyl-thiazolium bromide],pIC50,PAF receptor; PAF challenge 1.0000E-08 M,5.36
same,pIC50,PAF receptor; PAF challenge 5.0000E-08 M,5.30
same,inhibition at 10 µM,PAF receptor; [4],93%
same,inhibition at 10 µM,PAF receptor; [1],72%
CCCCCCCCCCCCCCOc1ccc(CC(=O)Nc2cccc(-c3scc[n+]3C)c2)cc1 [3-Methyl-2-[3-[[[4-(tetradecyloxy)phenyl]acetyl]amino]phenyl]thiazolium chloride],pIC50,PAF receptor; PAF challenge 5.0000E-08 M,4.92
same,inhibition at 10 µM,PAF receptor; [1],46%
CCCCCCCCCCCCCCOc1ccc(NC(=O)Nc2cccc(C[n+]3csc(C)c3)c2)cc1 [5-Methyl-3-[[3-[[[[4-(tetradecyloxy)phenyl]amino]carbonyl]amino]phenyl]methyl]thiazolium bromide],pIC50,PAF receptor; PAF challenge 5.0000E-08 M,5.82
same,pIC50,PAF receptor; PAF challenge .0000001 M,4.77
same,inhibition at 10 µM,PAF receptor; [1],92%
same,inhibition at 50 µM,"PAF receptor; dose .00005 M, PAF challenge .0000001 M, read-out: % INH of PAF induced platelet aggregation",80%
CCCCCCCCCCCCCCOc1ccc(CC(=O)Nc2cccc(C[n+]3ccn4ccccc43)c2)cc1,pIC50,PAF receptor; PAF challenge 5.0000E-08 M,5.82
same,inhibition at 10 µM,PAF receptor; [1],91%
CCCCCCCCCCCCCCOc1ccc(CC(=O)Nc2ccc(C[n+]3csc(C)c3)cc2)cc1.[Br-] [5-methyl-3-[[4-[[[4-(tetradecyloxy)phenyl]acetyl]amino]phenyl]methyl]-thiazolium bromide],% Survival,PAF; 5 mg/kg P.O.,32%
same,% Survival,PAF; 20 mg/kg P.O.,32%
same,pIC50,PAF receptor; PAF challenge 5.0000E-08 M,6.74 and 6.49 and 5.89
same,inhibition at 10 µM,PAF receptor; [1],92%
